Results: patent US4981789A, “One-step enzymatic conversion of cephalosporin C and derivatives to 7-aminocephalosporanic acid and derivatives” (priority 1987, dated 1991)

Tested on: cephalosporin C amidase
Assay: Conversion of desacetoxycephalosporin C to 7-ADCA by cephalosporin C amidase
Type: biochemical, Arthrobacter viscosus ATCC 53594
Method: As already described above, desacetoxycephalosporin C (DOAC) may be converted to 7-aminodesacetoxycephalosporanic acid (7-ADCA) using the enzyme and method of the present invention. This conversion may be illustrated as follows: [drawing 10] Cephalosporin C amidase, prepared as described above in Example 1, was incubated with 2 mg/ml DAOC for 3 hrs at 37° C. The reaction mixture required a pre-chromatography separation step using XAD-16® (Rohm and Haas) macroreticular water insoluble cross linked adsorbent polymer to remove coeluting contaminants. Chromatography was carried out in accordance with the procedures described above in Example 1 (except that the mobile phase consisted of 1 liter deionized water, 1.88 g hexyl sodium sulfonate, 2.025 ml phosphoric acid, and 25 ml acetonitrile, pH 2.75), and established that approximately 0.5 to 1.0% of the original DOAC substrate had been converted to 7-ADCA.

CC1=C(C(=O)O)N2C(=O)C(NC(=O)CCCC(N)C(=O)O)C2SC1 (stereo not shown) [DOAC, desacetoxycephalosporin C]
extent of conversion to 7-ADCA compared with conversion of cephalosporin C to 7-ACA: essentially equivalent to the conversion of cephalosporin C to 7-aminocephalosporanic acid
